According to the supplement of paper PMC10307832:

How the values were obtained:
Assay in all cases: relative viability (nuclei count vs DMSO), 5 days (fraction); higher = more cells survive
201T = test system: 201T
Summary of the method: (§1)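 Each reported value is a median over duplicate plates. It expresses relative viability: treated-well nuclei count divided by vehicle-well nuclei count. Lung cancer cell lines in 1536-well plates were dosed by pin tool a day after seeding, alone with one drug or with a fixed anchor-drug dose plus five library-drug doses (not always all listed) in √10 steps, and nuclei were counted after 5 days.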

BEN = test system: BEN
Summary of the method: as §1

COR-L 105 = test system: COR-L 105
Summary of the method: as §1

EKVX = test system: EKVX
Summary of the method: as §1

EPLC-272H = test system: EPLC-272H
Summary of the method: as §1

H3255 = test system: H3255
Summary of the method: as §1

HCC-44 = test system: HCC-44
Summary of the method: as §1

HCC-827 = test system: HCC-827
Summary of the method: as §1

LCLC-97TM1 = test system: LCLC-97TM1
Summary of the method: as §1

LOU-NH91 = test system: LOU-NH91
Summary of the method: as §1

LU99A = test system: LU99A
Summary of the method: as §1

NCI-H1437 = test system: NCI-H1437
Summary of the method: as §1

NCI-H1666 = test system: NCI-H1666
Summary of the method: as §1

NCI-H1975 = test system: NCI-H1975
Summary of the method: as §1

NCI-H2085 = test system: NCI-H2085
Summary of the method: as §1

NCI-H2087 = test system: NCI-H2087
Summary of the method: as §1

NCI-H2170 = test system: NCI-H2170
Summary of the method: as §1

NCI-H2342 = test system: NCI-H2342
Summary of the method: as §1

NCI-H647 = test system: NCI-H647
Summary of the method: as §1

NCI-H650 = test system: NCI-H650
Summary of the method: as §1

PC-3 [JPC-3] = test system: PC-3 [JPC-3]
Summary of the method: as §1

SW 1573 = test system: SW 1573
Summary of the method: as §1

For `O=c1cc(-c2cccc3c2Sc2ccccc2S3)oc(N2CCOCC2)c1` + CC(=O)Nc1cccc(-n2c(=O)n(C3CC3)c(=O)c3c(Nc4ccc(I)cc4F)n(C)c(=O)c(C)c32)c1 [Trametinib] (partner 0.02 µM), the relative viability (201T; first compound 0.08 µM) was 0.722, the relative viability (201T; first compound 0.253 µM) was 0.735 and the relative viability (201T; first compound 0.8 µM) was 0.727. For the same compound, the relative viability (201T; first compound 2.53 µM) was 0.673, the relative viability (201T; first compound 8 µM) was 0.686 and the relative viability (BEN; first compound 0.08 µM) was 0.945. It also gave a relative viability (BEN; first compound 0.253 µM) of 0.982, a relative viability (BEN; first compound 0.8 µM) of 1.1 and a relative viability (BEN; first compound 2.53 µM) of 0.975. For the same compound, the relative viability (BEN; first compound 8 µM) was 1.07, the relative viability (COR-L 105; first compound 0.08 µM) was 0.397 and the relative viability (COR-L 105; first compound 0.253 µM) was 0.359. For the same compound, the relative viability (COR-L 105; first compound 0.8 µM) was 0.383, the relative viability (COR-L 105; first compound 2.53 µM) was 0.434 and the relative viability (COR-L 105; first compound 8 µM) was 0.461. The relative viability (EKVX; first compound 0.08 µM) was 0.554, the relative viability (EKVX; first compound 0.253 µM) was 0.332 and the relative viability (EKVX; first compound 0.8 µM) was 0.296. It also gave a relative viability (EKVX; first compound 2.53 µM) of 0.332, a relative viability (EKVX; first compound 8 µM) of 0.336 and a relative viability (EPLC-272H; first compound 0.08 µM) of 0.254. For the same compound, the relative viability (EPLC-272H; first compound 0.253 µM) was 0.293, the relative viability (EPLC-272H; first compound 0.8 µM) was 0.238 and the relative viability (EPLC-272H; first compound 2.53 µM) was 0.28. It also gave a relative viability (EPLC-272H; first compound 8 µM) of 0.28, a relative viability (H3255; first compound 0.08 µM) of 0.725 and a relative viability (H3255; first compound 0.253 µM) of 0.588. The relative viability (H3255; first compound 0.8 µM) was 0.681, the relative viability (H3255; first compound 2.53 µM) was 0.543 and the relative viability (H3255; first compound 8 µM) was 0.561. The relative viability (HCC-44; first compound 0.08 µM) was 0.993, the relative viability (HCC-44; first compound 0.253 µM) was 1.01 and the relative viability (HCC-44; first compound 0.8 µM) was 0.985. It also gave a relative viability (HCC-44; first compound 2.53 µM) of 1.01, a relative viability (HCC-44; first compound 8 µM) of 1.07 and a relative viability (HCC-827; first compound 0.08 µM) of 0.508. It also gave a relative viability (HCC-827; first compound 0.253 µM) of 0.563, a relative viability (HCC-827; first compound 0.8 µM) of 0.537 and a relative viability (HCC-827; first compound 2.53 µM) of 0.427. It also gave a relative viability (HCC-827; first compound 8 µM) of 0.544, a relative viability (LCLC-97TM1; first compound 0.08 µM) of 0.204 and a relative viability (LCLC-97TM1; first compound 0.253 µM) of 0.196. The relative viability (LCLC-97TM1; first compound 0.8 µM) was 0.175, the relative viability (LCLC-97TM1; first compound 2.53 µM) was 0.186 and the relative viability (LCLC-97TM1; first compound 8 µM) was 0.181. It also gave a relative viability (LOU-NH91; first compound 0.08 µM) of 0.772, a relative viability (LOU-NH91; first compound 0.253 µM) of 0.884 and a relative viability (LOU-NH91; first compound 0.8 µM) of 0.732. The relative viability (LOU-NH91; first compound 2.53 µM) was 0.719, the relative viability (LOU-NH91; first compound 8 µM) was 0.777 and the relative viability (LU99A; first compound 0.08 µM) was 0.531. For the same compound, the relative viability (LU99A; first compound 0.253 µM) was 0.624, the relative viability (LU99A; first compound 0.8 µM) was 0.553 and the relative viability (LU99A; first compound 2.53 µM) was 0.538. The relative viability (LU99A; first compound 8 µM) was 0.52, the relative viability (NCI-H1437; first compound 0.08 µM) was 0.47 and the relative viability (NCI-H1437; first compound 0.253 µM) was 0.64. For the same compound, the relative viability (NCI-H1437; first compound 0.8 µM) was 0.483, the relative viability (NCI-H1437; first compound 2.53 µM) was 0.395 and the relative viability (NCI-H1437; first compound 8 µM) was 0.412. It also gave a relative viability (NCI-H1666; first compound 0.08 µM) of 0.828, a relative viability (NCI-H1666; first compound 0.253 µM) of 0.916 and a relative viability (NCI-H1666; first compound 0.8 µM) of 0.864. It also gave a relative viability (NCI-H1666; first compound 2.53 µM) of 0.89, a relative viability (NCI-H1666; first compound 8 µM) of 0.793 and a relative viability (NCI-H1975; first compound 0.08 µM) of 0.323. It also gave a relative viability (NCI-H1975; first compound 0.253 µM) of 0.295, a relative viability (NCI-H1975; first compound 0.8 µM) of 0.327 and a relative viability (NCI-H1975; first compound 2.53 µM) of 0.347. For the same compound, the relative viability (NCI-H1975; first compound 8 µM) was 0.39, the relative viability (NCI-H2085; first compound 0.08 µM) was 0.526 and the relative viability (NCI-H2085; first compound 0.253 µM) was 0.573. The relative viability (NCI-H2085; first compound 0.8 µM) was 0.441, the relative viability (NCI-H2085; first compound 2.53 µM) was 0.401 and the relative viability (NCI-H2085; first compound 8 µM) was 0.446. The relative viability (NCI-H2087; first compound 0.08 µM) was 0.143, the relative viability (NCI-H2087; first compound 0.253 µM) was 0.212 and the relative viability (NCI-H2087; first compound 0.8 µM) was 0.172. For the same compound, the relative viability (NCI-H2087; first compound 2.53 µM) was 0.172, the relative viability (NCI-H2087; first compound 8 µM) was 0.179 and the relative viability (NCI-H2170; first compound 0.08 µM) was 0.996. For the same compound, the relative viability (NCI-H2170; first compound 0.253 µM) was 1.08, the relative viability (NCI-H2170; first compound 0.8 µM) was 1.06 and the relative viability (NCI-H2170; first compound 2.53 µM) was 0.816. The relative viability (NCI-H2170; first compound 8 µM) was 1.01, the relative viability (NCI-H2342; first compound 0.08 µM) was 0.744 and the relative viability (NCI-H2342; first compound 0.253 µM) was 0.897. It also gave a relative viability (NCI-H2342; first compound 0.8 µM) of 0.736, a relative viability (NCI-H2342; first compound 2.53 µM) of 0.716 and a relative viability (NCI-H2342; first compound 8 µM) of 0.935. It also gave a relative viability (NCI-H647; first compound 0.08 µM) of 0.452, a relative viability (NCI-H647; first compound 0.253 µM) of 0.543 and a relative viability (NCI-H647; first compound 0.8 µM) of 0.405. The relative viability (NCI-H647; first compound 2.53 µM) was 0.376, the relative viability (NCI-H647; first compound 8 µM) was 0.418 and the relative viability (NCI-H650; first compound 0.08 µM) was 0.994. For the same compound, the relative viability (NCI-H650; first compound 0.253 µM) was 1.03, the relative viability (NCI-H650; first compound 0.8 µM) was 0.959 and the relative viability (NCI-H650; first compound 2.53 µM) was 0.901. For the same compound, the relative viability (NCI-H650; first compound 8 µM) was 0.977, the relative viability (PC-3 [JPC-3]; first compound 0.08 µM) was 0.542 and the relative viability (PC-3 [JPC-3]; first compound 0.253 µM) was 0.732. It also gave a relative viability (PC-3 [JPC-3]; first compound 0.8 µM) of 0.53, a relative viability (PC-3 [JPC-3]; first compound 2.53 µM) of 0.617 and a relative viability (PC-3 [JPC-3]; first compound 8 µM) of 0.673. It also gave a relative viability (SW 1573; first compound 0.08 µM) of 0.597, a relative viability (SW 1573; first compound 0.253 µM) of 0.691 and a relative viability (SW 1573; first compound 0.8 µM) of 0.575. The relative viability (SW 1573; first compound 2.53 µM) was 0.574 and the relative viability (SW 1573; first compound 8 µM) was 0.554.
